Reference: the supplement of paper PMC11451515

System: NOMO1
Experiment: cell viability relative to DMSO control; higher = less cytotoxic
Settings: 48 h
Summary of the method: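 Leukemia cells (NOMO1 or SEM, 500 cells/well; P12-Ichikawa, 1000 cells/well) were seeded in 5 μl in 1536-well plates after at least four passages of adaptation to each medium. They received library compounds in DMSO by pin dosing, 11 threefold points from 47 μM to 0.79 nM. Luminescence with CellTiter-Glo One was read after 48 h at 37°C. Viability is stated per plate relative to DMSO wells, with cell-free wells as background.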

[1] = RPMI 5 mM glucose + 10% FBS, 0.000781 µM
[2] = RPMI 5 mM glucose + 10% FBS, 0.00234 µM
[3] = RPMI 5 mM glucose + 10% FBS, 0.00702 µM
[4] = RPMI 5 mM glucose + 10% FBS, 0.0211 µM
[5] = RPMI 5 mM glucose + 10% FBS, 0.0632 µM
[6] = RPMI 5 mM glucose + 10% FBS, 0.19 µM
[7] = RPMI 5 mM glucose + 10% FBS, 0.569 µM
[8] = RPMI 5 mM glucose + 10% FBS, 1.71 µM
[9] = RPMI 5 mM glucose + 10% FBS, 5.12 µM
[10] = RPMI 5 mM glucose + 10% FBS, 15.4 µM
[11] = RPMI 5 mM glucose + 10% FBS, 46.1 µM
[12] = RPMI 5 mM glucose + 10% dialyzed FBS, 0.000781 µM
[13] = RPMI 5 mM glucose + 10% dialyzed FBS, 0.00234 µM
[14] = RPMI 5 mM glucose + 10% dialyzed FBS, 0.00702 µM
[15] = RPMI 5 mM glucose + 10% dialyzed FBS, 0.0211 µM
[16] = RPMI 5 mM glucose + 10% dialyzed FBS, 0.0632 µM
[17] = RPMI 5 mM glucose + 10% dialyzed FBS, 0.19 µM
[18] = RPMI 5 mM glucose + 10% dialyzed FBS, 0.569 µM
[19] = RPMI 5 mM glucose + 10% dialyzed FBS, 1.71 µM
[20] = RPMI 5 mM glucose + 10% dialyzed FBS, 5.12 µM
[21] = RPMI 5 mM glucose + 10% dialyzed FBS, 15.4 µM
[22] = RPMI 5 mM glucose + 10% dialyzed FBS, 46.1 µM
[23] = HPLM + 10% dialyzed FBS, 0.000781 µM
[24] = HPLM + 10% dialyzed FBS, 0.00234 µM
[25] = HPLM + 10% dialyzed FBS, 0.00702 µM
[26] = HPLM + 10% dialyzed FBS, 0.0211 µM
[27] = HPLM + 10% dialyzed FBS, 0.0632 µM
[28] = HPLM + 10% dialyzed FBS, 0.19 µM
[29] = HPLM + 10% dialyzed FBS, 0.569 µM
[30] = HPLM + 10% dialyzed FBS, 1.71 µM
[31] = HPLM + 10% dialyzed FBS, 5.12 µM
[32] = HPLM + 10% dialyzed FBS, 15.4 µM
[33] = HPLM + 10% dialyzed FBS, 46.1 µM

| Compound | cell viability [1] [%] | cell viability [2] [%] | cell viability [3] [%] | cell viability [4] [%] | cell viability [5] [%] | cell viability [6] [%] | cell viability [7] [%] | cell viability [8] [%] | cell viability [9] [%] | cell viability [10] [%] | cell viability [11] [%] | cell viability [12] [%] | cell viability [13] [%] | cell viability [14] [%] | cell viability [15] [%] | cell viability [16] [%] | cell viability [17] [%] | cell viability [18] [%] | cell viability [19] [%] | cell viability [20] [%] | cell viability [21] [%] | cell viability [22] [%] | cell viability [23] [%] | cell viability [24] [%] | cell viability [25] [%] | cell viability [26] [%] | cell viability [27] [%] | cell viability [28] [%] | cell viability [29] [%] | cell viability [30] [%] | cell viability [31] [%] | cell viability [32] [%] | cell viability [33] [%] |
| --- | --- | --- | --- | --- | --- | --- | --- | --- | --- | --- | --- | --- | --- | --- | --- | --- | --- | --- | --- | --- | --- | --- | --- | --- | --- | --- | --- | --- | --- | --- | --- | --- | --- |
| OC(CN1CCN(c2cccc(Cl)c2)CC1)C(c1ccccc1)c1ccccc1 (stereo not drawn) | 116 | 119 | 133 | 127 | 132 | 126 | 108 | 22.7 | 16.6 | 14.1 | 7.62 | 124 | 118 | 124 | 126 | 138 | 125 | 126 | 31 | 27.8 | 24 | 9.63 | – | – | – | – | – | – | – | – | – | – | – |
| CC(C)OC1=CC=C2C(=C1)O\C=C(/C2=O)C3=CC=CC=C3 | – | – | – | – | – | – | – | – | – | – | – | – | – | – | – | – | – | – | – | – | – | – | 116 | 119 | 130 | 143 | 151 | 120 | 122 | 105 | 108 | 123 | 120 |
| CC(C)(O)c1cc2nc(-c3cnc(N)nc3)nc(N3CCOCC3)c2s1 | 123 | 121 | 107 | 121 | 110 | 104 | 104 | 88.7 | 76.6 | 63.1 | 67.5 | 121 | 125 | 114 | 105 | 98.2 | 85.8 | 83.3 | 60.8 | 53.4 | 46.8 | 51.8 | – | – | – | – | – | – | – | – | – | – | – |
| c1ccc(-c2oc3ncnc(NC[C@@H]4CCCO4)c3c2-c2ccccc2)cc1 | 102 | 110 | 112 | 114 | 120 | 120 | 117 | 109 | 110 | 112 | 63.8 | – | – | – | – | – | – | – | – | – | – | – | 114 | 113 | 134 | 113 | 134 | 128 | 123 | 126 | 112 | 103 | 62 |
| CNC(=O)CN1CCC(Oc2cc3c(Nc4cccc(Cl)c4F)ncnc3cc2OC)CC1 | – | – | – | – | – | – | – | – | – | – | – | 116 | 122 | 138 | 133 | 141 | 144 | 52.7 | 41.8 | 32.1 | 33.7 | 31.7 | – | – | – | – | – | – | – | – | – | – | – |
| NC(=O)Nc1cc(-c2cccc(F)c2)sc1C(=O)N[C@H]1CCCNC1 | – | – | – | – | – | – | – | – | – | – | – | 121 | 122 | 136 | 134 | 136 | 139 | 81.7 | 33.2 | 24.4 | 21.6 | 23.4 | 125 | 102 | 141 | 107 | 147 | 92.1 | 59.2 | 42 | 24.7 | 26.9 | 26.2 |
| O=c1[nH]c(=O)n(C2CCCO2)cc1F (stereo not drawn) | 10.4 | 124 | 108 | 116 | 105 | 131 | 106 | 110 | 116 | 111 | 109 | – | – | – | – | – | – | – | – | – | – | – | – | – | – | – | – | – | – | – | – | – | – |
| CC(C)Oc1ccc(C(=O)N[C@H](CNC(=O)CN(C)C)Cc2ccc(-c3cn4cccc([C@H](C)O)c4n3)cc2)cc1Cl | 104 | 107 | 112 | 113 | 113 | 98.5 | 87 | 24.8 | 19.7 | 14.6 | 21.6 | 107 | 124 | 112 | 125 | 113 | 109 | 100 | 39.4 | 25.6 | 20.1 | 24.8 | 123 | 131 | 108 | 123 | 103 | 99.8 | 113 | 32.6 | 33.1 | 23.6 | 32.5 |
| COc1cc(/C=C/C(=O)O)ccc1O | 84.9 | 112 | 87.8 | 93.6 | 95.2 | 101 | 92.2 | 95.1 | 107 | 96.6 | 104 | 84.3 | 91 | 93.9 | 93.1 | 83.7 | 96.3 | 95.7 | 86.9 | 89.9 | 92.5 | 102 | 76.1 | 90.7 | 91.8 | 100 | 107 | 100 | 103 | 98.8 | 82.6 | 108 | 101 |
| Cc1cccc(/C=N/Nc2cc(N3CCOCC3)nc(OCCc3ccccn3)n2)c1 | 98.8 | 107 | 97.9 | 99.5 | 87.6 | 97 | 77.2 | 68.2 | 19.3 | 22.6 | 21.4 | 99.8 | 93 | 90.9 | 98.6 | 95.4 | 85.8 | 75.9 | 38.7 | 15.1 | 18.8 | 17.5 | 101 | 106 | 111 | 107 | 90.2 | 97.9 | 94.5 | 77.5 | 41.5 | 34.4 | 24.3 |
| OCCn1cc(-c2cnc3nnn(Cc4ccc5ncccc5c4)c3n2)cn1 | 99.4 | 110 | 112 | 99.9 | 93.2 | 116 | 110 | 107 | 102 | 105 | 96.5 | 93.3 | 105 | 103 | 112 | 105 | 91.7 | 97.1 | 103 | 86.8 | 80.6 | 82.2 | 106 | 104 | 123 | 110 | 102 | 118 | 92.2 | 103 | 92.1 | 89.7 | 63.2 |
